Experimental data reported in patent US8618289B2 (Ambit Biosciences Corporation, priority 2008, dated 2013).
Where a name gives a salt, the structure may show the parent alone.

Legend:
RAF kinases [1] = biological target: RAF kinases (Homo sapiens, UniProt P04049); experiment: biochemical
A375 cells = experiment: cells; details: Homo sapiens, A-375, read-out: A375 Viability EC50
[2] = system: MEK1 phosphorylation in the A375 human melanoma cell line; experiment: cells; details: A-375, read-out: pMEK IC50
RAF kinases [3] = biological target: RAF kinases (Homo sapiens, UniProt P15056); experiment: biochemical
RAF kinases (Homo sapiens, UniProt P15056), sequence (P15056 whole entry): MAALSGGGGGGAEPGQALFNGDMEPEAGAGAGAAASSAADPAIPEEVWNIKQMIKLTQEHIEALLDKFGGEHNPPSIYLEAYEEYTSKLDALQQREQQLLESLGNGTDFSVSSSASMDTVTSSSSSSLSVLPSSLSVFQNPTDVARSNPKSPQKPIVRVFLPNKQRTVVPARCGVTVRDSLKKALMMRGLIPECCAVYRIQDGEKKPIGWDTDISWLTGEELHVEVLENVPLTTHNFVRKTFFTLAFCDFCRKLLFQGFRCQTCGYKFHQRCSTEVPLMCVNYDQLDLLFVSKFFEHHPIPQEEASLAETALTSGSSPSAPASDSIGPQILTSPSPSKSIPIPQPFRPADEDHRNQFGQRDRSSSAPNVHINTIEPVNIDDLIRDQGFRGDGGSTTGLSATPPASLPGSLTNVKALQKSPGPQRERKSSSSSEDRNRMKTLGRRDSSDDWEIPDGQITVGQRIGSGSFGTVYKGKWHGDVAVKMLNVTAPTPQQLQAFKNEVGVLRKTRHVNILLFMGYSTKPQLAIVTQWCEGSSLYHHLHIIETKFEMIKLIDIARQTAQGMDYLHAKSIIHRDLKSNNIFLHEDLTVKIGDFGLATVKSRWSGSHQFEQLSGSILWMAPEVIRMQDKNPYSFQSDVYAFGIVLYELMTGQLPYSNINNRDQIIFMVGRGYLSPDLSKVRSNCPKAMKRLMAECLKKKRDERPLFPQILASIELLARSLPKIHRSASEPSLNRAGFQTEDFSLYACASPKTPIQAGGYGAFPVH

RAF kinases (Homo sapiens, UniProt P04049), sequence (P04049 whole entry): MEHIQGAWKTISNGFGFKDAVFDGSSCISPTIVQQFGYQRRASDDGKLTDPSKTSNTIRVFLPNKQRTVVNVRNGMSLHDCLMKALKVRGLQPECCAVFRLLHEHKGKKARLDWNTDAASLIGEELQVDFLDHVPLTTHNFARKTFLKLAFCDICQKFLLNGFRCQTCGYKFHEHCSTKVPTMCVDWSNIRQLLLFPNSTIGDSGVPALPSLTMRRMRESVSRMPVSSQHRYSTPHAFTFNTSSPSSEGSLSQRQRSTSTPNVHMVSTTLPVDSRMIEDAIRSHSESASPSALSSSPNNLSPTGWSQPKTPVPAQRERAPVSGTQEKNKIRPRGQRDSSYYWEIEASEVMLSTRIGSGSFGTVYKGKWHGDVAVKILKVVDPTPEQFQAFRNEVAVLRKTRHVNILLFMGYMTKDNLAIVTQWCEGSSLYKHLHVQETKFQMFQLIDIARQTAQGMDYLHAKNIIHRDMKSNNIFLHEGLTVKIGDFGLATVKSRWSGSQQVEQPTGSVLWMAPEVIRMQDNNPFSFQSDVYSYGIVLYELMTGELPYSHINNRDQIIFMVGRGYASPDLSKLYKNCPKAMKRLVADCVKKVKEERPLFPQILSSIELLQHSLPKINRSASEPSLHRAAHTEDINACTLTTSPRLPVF

SMILES	Kd (RAF kinases [1])	EC50 (A375 cells)	IC50 [2]	Kd (RAF kinases [3])
COc1cc2ncnc(Oc3cccc(NC(=O)Nc4cc(C(C)(C)C)on4)c3)c2cc1OC [Ex 1, 1-(5-tert-butylisoxazol-3-yl)-3-(3-(6,7-dimethoxyquinazolin-4-yloxy)phenyl)urea]	250 to 500 nM	500 to 1000 nM	< 250 nM	
CCOc1cc2ncnc(Oc3cccc(NC(=O)Nc4cc(C(C)(C)C)on4)c3)c2cc1OC [Ex 6, 1-(5-tert-butylisoxazol-3-yl)-3-[3-(7-ethoxy-6-methoxyquinazolin-4-yloxy)phenyl]urea hydrochloride]	500 to 1000 nM	250 to 500 nM	< 250 nM	
COCCOc1cc2ncnc(Oc3cccc(NC(=O)Nc4cc(C(C)(C)C)on4)c3)c2cc1OC [Ex 7, 1-(5-tert-Butylisoxazol-3-yl)-3-{3-[6-methoxy-7-(2-methoxyethoxy)quinazolin-4-yloxy]phenyl}urea hydrochloride]	250 to 500 nM	250 to 500 nM	< 250 nM	250 to 500 nM
COc1cc2ncnc(Oc3cc(NC(=O)Nc4cc(C(C)(C)C)on4)ccc3F)c2cc1OC [Ex 9, 1-(5-tert-butylisoxazol-3-yl)-3-(3-(6,7-dimethoxyquinazolin-4-yloxy)-4-fluorophenyl)urea]	500 to 1000 nM	< 250 nM	< 250 nM	
CCOc1cc2c(Oc3cccc(NC(=O)Nc4cc(C(C)(C)C)on4)c3)ncnc2cc1OC [Ex 11, 1-(5-tert-butylisoxazol-3-yl)-3-(3-(6-ethoxy-7-methoxyquinazolin-4-yloxy)phenyl)urea]	500 to 1000 nM	< 250 nM	< 250 nM	
COCCOc1cc2ncnc(Oc3cccc(NC(=O)Nc4cc(C(C)(C)C)on4)c3)c2cc1OCCOC [Ex 12, 1-{3-[6,7-bis(2-methoxyethoxy)quinazolin-4-yloxy]phenyl}-3-(5-tert-butylisoxazol-3-yl)urea hydrochloride]	250 to 500 nM	250 to 500 nM	< 250 nM	500 to 1000 nM
CC(C)(C)c1cc(NC(=O)Nc2cccc(Oc3ncnc4cc5c(cc34)OCCO5)c2)no1 [Ex 14, 1-(5-tert-butylisoxazol-3-yl)-3-[3-(7,8-dihydro-[1,4]dioxino[2,3-g]quinazolin-4-yloxy)phenyl]urea hydrochloride]	250 to 500 nM	> 1000 nM	500 to 1000 nM	500 to 1000 nM
COCCOc1cc2c(Oc3cccc(NC(=O)Nc4cc(C(C)(C)C)on4)c3)ncnc2cc1OC [Ex 15, 1-(5-tert-butylisoxazol-3-yl)-3-{3-[7-methoxy-6-(2-methoxyethoxy)quinazolin-4-yloxy]phenyl}urea hydrochloride]	250 to 500 nM	< 250 nM	< 250 nM	250 to 500 nM
COc1cc2ncnc(Oc3cccc(NC(=O)Nc4cc(C(C)(C)C)on4)c3)c2cc1OCCN1CCC(CO)CC1 [Ex 17, 1-(5-tert-butylisoxazol-3-yl)-3-(3-(6-(2-(4-(hydroxymethyl)piperidin-1-yl)ethoxy)-7-methoxyquinazolin-4-yloxy)phenyl)urea]	500 to 1000 nM	250 to 500 nM	250 to 500 nM	500 to 1000 nM
COc1cc2ncnc(Oc3cccc(NC(=O)Nc4cc(C(C)(C)C)on4)c3)c2cc1OCCN1CCN(C)CC1 [Ex 18, 1-(5-tert-butylisoxazol-3-yl)-3-(3-(7-methoxy-6-(2-(4-methylpiperazin-1-yl)ethoxy)quinazolin-4-yloxy)phenyl)urea]	500 to 1000 nM	250 to 500 nM	< 250 nM	250 to 500 nM
COc1cc2ncnc(Oc3cccc(NC(=O)Nc4cc(C(C)(C)C)on4)c3)c2cc1OCCN1CCN(CCO)CC1 [Ex 19, 1-(5-tert-butylisoxazol-3-yl)-3-(3-(6-(2-(4-(2-hydroxyethyl)piperazin-1-yl)ethoxy)-7-methoxyquinazolin-4-yloxy)phenyl)urea]	250 to 500 nM	250 to 500 nM	< 250 nM	250 to 500 nM
COc1cc2ncnc(Oc3cccc(NC(=O)Nc4cc(C(C)(C)C)on4)c3)c2cc1OCCN1CCOCC1 [Ex 20, 1-(5-tert-butylisoxazol-3-yl)-3-(3-(7-methoxy-6-(2-morpholinoethoxy)quinazolin-4-yloxy)phenyl)urea]	250 to 500 nM	< 250 nM	< 250 nM	250 to 500 nM
COc1cc2ncnc(Oc3cccc(NC(=O)Nc4cc(C(C)(C)C)on4)c3)c2cc1OCCCN1CCN(C)CC1 [Ex 21, 1-(5-tert-butylisoxazol-3-yl)-3-(3-(7-methoxy-6-(3-(4-methylpiperazin-1-yl)propoxy)quinazolin-4-yloxy)phenyl)urea]	250 to 500 nM	250 to 500 nM	< 250 nM	250 to 500 nM
COc1cc2c(Oc3cccc(NC(=O)Nc4cc(C(C)(C)C)on4)c3)ncnc2cc1OCCCN1CCN(CCO)CC1 [Ex 30, 1-(5-tert-butylisoxazol-3-yl)-3-(3-(7-(3-(4-(2-hydroxyethyl)piperazin-1-yl)propoxy)-6-methoxyquinazolin-4-yloxy)phenyl)urea]	250 to 500 nM	< 250 nM	< 250 nM	
COCCOc1ccc2ncnc(Oc3cccc(NC(=O)Nc4cc(C(C)(C)C)on4)c3)c2c1 [Ex 40, 1-(5-tert-butylisoxazol-3-yl)-3-(3-(6-(2-methoxyethoxy)quinazolin-4-yloxy)phenyl)urea]	250 to 500 nM	500 to 1000 nM	< 250 nM	
COc1cc2ncnc(Sc3cccc(NC(=O)Nc4cc(C(C)(C)C)on4)c3)c2cc1OCCN1CCCCC1 [Ex 65, 1-(5-tert-butylisoxazol-3-yl)-3-(3-(7-methoxy-6-(2-(piperidin-1-yl)ethoxy)quinazolin-4-ylthio)phenyl)urea]	500 to 1000 nM	> 1000 nM	250 to 500 nM	
COc1cc2ncnc(Oc3cccc(NC(=O)Nc4cc(C(C)(C)CO)on4)c3)c2cc1OC [Ex 131, 1-(3-(6,7-dimethoxyquinazolin-4-yloxy)phenyl)-3-(5-(1-hydroxy-2-methylpropan-2-yl)isoxazol-3-yl)urea]		> 1000 nM	500 to 1000 nM	250 to 500 nM
COc1cc2ncnc(Oc3cccc(NC(=O)Nc4ccc(OC)c(C(F)(F)F)c4)c3)c2cc1OC [Ex 138, 1-(3-(6,7-dimethoxyquinazolin-4-yloxy)phenyl)-3-(4-methoxy-3-(trifluoromethyl)phenyl)urea]		> 1000 nM	250 to 500 nM	250 to 500 nM
COc1cc2ncnc(Oc3cccc(NC(=O)Nc4cccc(C(C)C)c4)c3)c2cc1OC [Ex 144, 1-(3-(6,7-dimethoxyquinazolin-4-yloxy)phenyl)-3-(3-isopropylphenyl)urea]		> 1000 nM	250 to 500 nM	250 to 500 nM
COc1cc2ncnc(Oc3cccc(NC(=O)Nc4cc(CN5CCOCC5)cc(C(F)(F)F)c4)c3)c2cc1OC [Ex 151, 1-(3-(6,7-dimethoxyquinazolin-4-yloxy)phenyl)-3-(3-(morpholinomethyl)-5-(trifluoromethyl)phenyl)urea]	250 to 500 nM	> 1000 nM	> 1000 nM	
COc1cc2ncnc(Oc3cccc(NC(=O)Nc4cc(C(C)(C)C)nn4C)c3)c2cc1OC [Ex 158, 1-(3-tert-butyl-1-methyl-1H-pyrazol-5-yl)-3-(3-(6,7-dimethoxyquinazolin-4-yloxy)phenyl)urea]	500 to 1000 nM	> 1000 nM	250 to 500 nM	
COc1cc2ncnc(Oc3cccc(NC(=O)Nc4cc(C(C)(CF)CF)on4)c3)c2cc1OC [Ex 162, 1-[5-(1,3-difluoro-2-methylpropan-2-yl)isoxazol-3-yl]-3-[3-(6,7-dimethoxyquinazolin-4-yloxy)phenyl]urea]		< 250 nM	< 250 nM	250 to 500 nM
COc1cc2ncnc(Oc3cccc(NC(=O)Nc4ccc(OC(F)(F)F)cc4)c3)c2cc1OC [Ex 177, 1-(3-(6,7-dimethoxyquinazolin-4-yloxy)phenyl)-3-(4-(trifluoromethoxy)phenyl)urea]		> 1000 nM	> 1000 nM	250 to 500 nM
COc1cc2ncnc(Oc3cccc(NC(=O)Nc4ccc(C(F)(F)F)cc4)c3)c2cc1OC [Ex 183, 1-(3-(6,7-dimethoxyquinazolin-4-yloxy)phenyl)-3-(4-(trifluoromethyl)phenyl)urea]		> 1000 nM	500 to 1000 nM	250 to 500 nM
COc1cc2ncnc(Sc3cccc(NC(=O)Nc4cccc(C(F)(F)F)c4)c3)c2cc1OC [Ex 185, 1-(3-(6,7-dimethoxyquinazolin-4-ylthio)phenyl)-3-(3-(trifluoromethyl)phenyl)urea]		> 1000 nM	500 to 1000 nM	250 to 500 nM
COc1cc2ncnc(Sc3cccc(NC(=O)Nc4cc(C(C)(C)F)no4)c3)c2cc1OC [Ex 187, 1-(3-(6,7-dimethoxyquinazolin-4-ylthio)phenyl)-3-(3-(2-fluoropropan-2-yl)isoxazol-5-yl)urea]		> 1000 nM	< 250 nM	250 to 500 nM
COc1cc2ncnc(Sc3cccc(NC(=O)Nc4cc(C(C)(CF)CF)on4)c3)c2cc1OC [Ex 191, 1-[5-(1,3-difluoro-2-methylpropan-2-yl)isoxazol-3-yl]-3-[3-(6,7-dimethoxyquinazolin-4-ylthio)phenyl]urea]		< 250 nM	< 250 nM	250 to 500 nM
COc1cc2ncnc(Sc3cccc(NC(=O)Nc4cc(C5CCCC5)on4)c3)c2cc1OC [Ex 201, 1-(5-cyclopentylisoxazol-3-yl)-3-(3-(6,7-dimethoxyquinazolin-4-ylthio)phenyl)urea]		> 1000 nM	250 to 500 nM	250 to 500 nM
COc1cc2ncnc(Sc3cccc(NC(=O)Nc4cc(C(C)(C)C#N)nn4-c4ccccc4)c3)c2cc1OC [Ex 309, 1-(3-(2-cyanopropan-2-yl)-1-phenyl-1H-pyrazol-5-yl)-3-(3-(6,7-dimethoxyquinazolin-4-ylthio)phenyl)urea]	500 to 1000 nM		< 250 nM	500 to 1000 nM
